Results on 2 molecules are retold here after patent US11338004B2, “Composition for preventing or treating cranial nerve disease comprising fomes fomentarius extract, fraction thereof, or compound isolated therefrom as active ingredient” (priority 2015, dated 2022).

Assay [1] concerns the target xanthine oxidase (Homo sapiens, UniProt P47989). Nature of the assay: Xanthine oxidase inhibitory activity. It is filed as biochemical. Here is the method:
0.2 ml of the substrate solution in which 2 mM xanthine was dissolved was added to 0.1 ml of a sample solution and 0.6 ml of 0.1 M potassium phosphate buffer at pH 7.5, and 0.1 ml of 0.2 unit/ml xanthine oxidase was added thereto, followed by reaction at 37° C. for 5 minutes. Then, 1 ml of 1N HCl was added to terminate the reaction, and then the absorbance of the uric acid produced in the reaction solution was measured at 292 nm. The inhibitory activity of xanthine oxidase was shown by the absorbance reduction rate of the addition group and the non-addition group of the sample solution.
Xanthine oxidase acts as a rate-limiting enzyme in the terminal oxidation of all purines and is an enzyme that acts as a source of oxidizing agents such as superoxide radicals and hydrogen peroxide. The superoxide anion inhibition by xanthine/xanthine oxidase enzymes is shown by superoxide anion scavenging activity and xanthine oxidase inhibition and has biologically important meaning through inhibition of gout and formation of free radicals. The superoxide radical scavenging effects of 10, 20, 40, 80, 160, 320, and 640 μg mL-1 of each fraction extract of the Fomes fomentarius were compared using butylated hydroxy anisole (BHA) as a positive control group.
The superoxide radical scavenging effects of 10, 20, 40, 80, 160, 320, and 640 μg mL-1 of the Acer tegmentosum maxim extract were compared using butylated hydroxy anisole (BHA) as a positive control group.
The superoxide radical scavenging effects of 10, 20, 40, 80, 160, 320, and 640 μg mL-1 of the berchemia berchemiaefolia extract were compared using butylated hydroxy anisole (BHA) as a positive control group.
The superoxide radical scavenging effects of 10, 20, 40, 80, 160, 320, and 640 μg mL-1 of the Lithospermum erythrorhizon extract were compared using butylated hydroxy anisole (BHA) as a positive control group.

Assay [2] is described as follows: DPPH radical scavenging activity. As to the method: The present experiment used the property that the hydrazyl of diphenylpicrylhydrazyl (DPPH) used in the present experiment has a property of easily accepting a hydrogen atom since the nitrogen atom is unstable, so as to react with the antioxidant material to accept the hydrogen atom to lose its own orthochromatism.
First, in order to measure DPPH radical scavenging activity of the Fomes fomentarius fraction, 1.9 ml of 0.2 mM DPPH solution (99.5% ethanol) was added to 0.1 ml of solutions (control: 99.5% ethanol) in which the concentrated dried material of each Fomes fomentarius substance was prepared at 7 concentrations of 10, 20, 40, 80, 160, 320 and 640 μg/ml, respectively. The mixture was shaken with a vortex mixer for 10 seconds and then incubated at 37° C. for 30 minutes. Then, the absorbance was measured at 517 nm using a spectrophotometer.
As a positive control drug, L-ascorbic acid was prepared at […] of 10, 20, 40, 80, 160, 320, and 640 μg/mL (99.5% ethanol).
The present inventors measured DPPH radicals scavenging activity in the same manner as in Example <2-2> above using nonadecanone (2-nonadecanone) and docosenol (cis-13-Docosenol) compounds found in the above and Fomes fomentarius CHCl3 fraction of the present disclosure.
First, in order to measure DPPH radical scavenging activity of the Acer tegmentosum maxim extract, 1.9 ml of 0.2 mM DPPH solution (99.5% ethanol) was added to 0.1 ml of solutions (control: 99.5% ethanol) in which the concentrated dried material of each Acer tegmentosum maxim material was prepared at 7 concentrations of 10, 20, 40, 80, 160, 320 and 640 μg/ml, respectively. The mixture was shaken with a vortex mixer for 10 seconds and then incubated at 37° C. for 30 minutes. Then, the absorbance was measured at 517 nm using a spectrophotometer.
As a positive control, L-ascorbic acid was prepared at […] of 10, 20, 40, 80, 160, 320, and 640 μg/mL (99.5% ethanol).
First, in order to measure DPPH radical scavenging activity of the berchemia berchemiaefolia extract, 1.9 ml of 0.2 mM DPPH solution (99.5% ethanol) was added to 0.1 ml of solutions (control: 99.5% ethanol) in which the concentrated dried material of each berchemia berchemiaefolia material was prepared at 7 concentrations of 10, 20, 40, 80, 160, 320 and 640 μg/ml, respectively. The mixture was shaken with a vortex mixer for 10 seconds and then incubated at 37° C. for 30 minutes. Then, the absorbance was measured at 517 nm using a spectrophotometer.
First, in order to measure DPPH radical scavenging activity of the Lithospermum erythrorhizon extract, 1.9 ml of 0.2 mM DPPH solution (99.5% ethanol) was added to 0.1 ml of solutions (control: 99.5% ethanol) in which the concentrated dried material of each Lithospermum erythrorhizon material was prepared at 7 concentrations of 10, 20, 40, 80, 160, 320 and 640 μg/ml, respectively. The mixture was shaken with a vortex mixer for 10 seconds and then incubated at 37° C. for 30 minutes. Then, the absorbance was measured at 517 nm using a spectrophotometer.

The target in assay [3] is AChE (Homo sapiens, UniProt P22303). Nature of the assay: Acetylcholinesterase inhibitory activity. The assay is classed as biochemical. Particulars: read-out: acetylcholinesterase inhibitory activity (%). As to the method: AChE and acetylthocholine iodine (ATC) were dissolved in 100 mM phosphate buffer (pH 8.0) to prepare 0.25 U/mL and 75 mM, respectively. […] 2.8 mL of phosphate buffer (100 mM, pH 8.0), 30 μL of AChE (0.25 U/mL), and 100 μL of DTNB were added to 30 μL of the extract, and were mixed. Then, the mixture was preincubated at 37° C. for 10 minutes. Then, 30 μL of substrate ATC was added thereto and was reacted at 37° C. for 3 minutes, and then the absorbance was measured at 412 nm. As a control group, 30 μL of 100 mM phosphate buffer (pH 8.0) was added instead of the extract, and then was measured.
Chain of AChE (P22303 32-614): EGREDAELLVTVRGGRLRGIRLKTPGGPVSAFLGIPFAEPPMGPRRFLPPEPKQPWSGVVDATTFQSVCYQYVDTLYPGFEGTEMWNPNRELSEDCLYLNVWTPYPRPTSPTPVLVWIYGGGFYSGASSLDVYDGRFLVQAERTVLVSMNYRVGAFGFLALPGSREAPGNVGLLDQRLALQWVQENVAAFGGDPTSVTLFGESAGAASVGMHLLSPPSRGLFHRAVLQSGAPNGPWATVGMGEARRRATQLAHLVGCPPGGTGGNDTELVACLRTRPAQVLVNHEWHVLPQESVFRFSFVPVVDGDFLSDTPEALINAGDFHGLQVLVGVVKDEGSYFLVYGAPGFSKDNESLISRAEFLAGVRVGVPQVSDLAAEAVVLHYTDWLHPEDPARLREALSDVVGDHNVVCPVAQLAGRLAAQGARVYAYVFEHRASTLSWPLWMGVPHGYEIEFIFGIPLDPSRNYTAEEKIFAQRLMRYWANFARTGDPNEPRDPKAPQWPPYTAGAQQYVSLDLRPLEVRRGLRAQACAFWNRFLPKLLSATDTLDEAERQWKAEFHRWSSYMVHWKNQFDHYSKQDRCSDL

SMILES strings stand for the structures.

Chain of xanthine oxidase (P47989 whole entry, species assumed): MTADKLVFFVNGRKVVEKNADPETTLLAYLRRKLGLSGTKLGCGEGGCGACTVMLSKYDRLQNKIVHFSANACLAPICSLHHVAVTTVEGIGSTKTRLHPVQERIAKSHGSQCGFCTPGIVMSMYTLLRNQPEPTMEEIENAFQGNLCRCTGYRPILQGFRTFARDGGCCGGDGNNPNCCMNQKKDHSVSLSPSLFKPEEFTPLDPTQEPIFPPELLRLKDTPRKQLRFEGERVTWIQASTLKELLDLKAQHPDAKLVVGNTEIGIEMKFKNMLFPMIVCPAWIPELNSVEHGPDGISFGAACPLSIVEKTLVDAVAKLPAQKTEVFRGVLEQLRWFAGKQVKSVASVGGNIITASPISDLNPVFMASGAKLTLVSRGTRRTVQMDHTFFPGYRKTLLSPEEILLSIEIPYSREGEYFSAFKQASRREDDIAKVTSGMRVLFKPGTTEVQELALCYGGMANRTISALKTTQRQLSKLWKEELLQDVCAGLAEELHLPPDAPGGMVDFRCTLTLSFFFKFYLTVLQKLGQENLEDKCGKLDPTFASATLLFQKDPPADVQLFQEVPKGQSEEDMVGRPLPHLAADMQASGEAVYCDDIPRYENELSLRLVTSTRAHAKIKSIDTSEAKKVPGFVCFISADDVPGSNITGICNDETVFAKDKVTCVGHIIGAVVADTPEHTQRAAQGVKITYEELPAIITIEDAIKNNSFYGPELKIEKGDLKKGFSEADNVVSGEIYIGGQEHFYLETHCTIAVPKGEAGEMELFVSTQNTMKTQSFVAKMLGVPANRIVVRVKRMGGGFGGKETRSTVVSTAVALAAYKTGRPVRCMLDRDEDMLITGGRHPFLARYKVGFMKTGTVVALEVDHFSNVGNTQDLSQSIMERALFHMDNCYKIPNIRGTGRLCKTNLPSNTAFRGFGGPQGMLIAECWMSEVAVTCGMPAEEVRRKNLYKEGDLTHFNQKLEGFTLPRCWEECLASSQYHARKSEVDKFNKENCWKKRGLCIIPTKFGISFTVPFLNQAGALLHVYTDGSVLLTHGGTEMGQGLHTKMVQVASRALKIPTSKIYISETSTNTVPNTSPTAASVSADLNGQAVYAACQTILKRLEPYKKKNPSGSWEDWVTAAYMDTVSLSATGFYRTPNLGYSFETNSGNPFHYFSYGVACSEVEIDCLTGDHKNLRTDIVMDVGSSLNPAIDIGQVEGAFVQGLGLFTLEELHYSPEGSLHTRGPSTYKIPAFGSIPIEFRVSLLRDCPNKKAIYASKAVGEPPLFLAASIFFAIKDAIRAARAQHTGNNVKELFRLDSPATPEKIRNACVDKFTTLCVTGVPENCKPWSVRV

`COc1ccc(O)c(C(C)(C)C)c1` [BHA, butylated hydroxyanisole]: the “xanthine oxidase inhibitory activity” value is recorded as 24.1±0.1 in assay [1] (10 μg/mL); 35.8±0.3 in assay [1] (20 μg/mL); 58.1±0.4 in assay [1] (40 μg/mL); 68.1±0.5 in assay [1] (80 μg/mL); 76.1±0.8 in assay [1] (160 μg/mL); 83.5±1.2 in assay [1] (320 μg/mL). For the same molecule, the “xanthine oxidase inhibitory activity” value in assay [1] (640 μg/mL) amounted to 85.6±1.3. In addition, the “xanthine oxidase inhibition of the positive control group” value in assay [1] (concentration not stated (Example 2-18)) was 94.1%.

Turning to `O=C1O[C@H]([C@@H](O)CO)C(O)=C1O` [ascorbic acid, L-ascorbic acid, reference compound], the “DPPH radical scavenging activity (% antioxidant activity)” value in assay [2] (10 μg/mL) is 70.5±4.5% and about 70.5%; in assay [2] (20 μg/mL), 71.8±12.5% and about 71.8%; in assay [2] (40 μg/mL), 74.1±8.2% and about 74.1%; in assay [2] (80 μg/mL) it was 77.8±7.6% and about 77.8%; in assay [2] (160 μg/mL), 80.6±4.5% and about 80.6%; in assay [2] (320 μg/mL), 83.2±9.6% and about 83.2%. In assay [2] (640 μg/mL), the “DPPH radical scavenging activity (% antioxidant activity)” value is 84.5±7.7% and about 84.5%. Further, the inhibition at 10 µg/mL is 35.8 ± 3.5% in assay [3] and 24.1 ± 1.8% in assay [1] (10 μg/mL). Also, the inhibition at 20 µg/mL in assay [3] was found to be 45.1 ± 4.5%; in assay [1] (20 μg/mL), 35.1 ± 2.5%. Further, the inhibition at 40 µg/mL worked out at 51.8 ± 6.5% in assay [3] and 58.1 ± 0.9% in assay [1] (40 μg/mL). In addition, the values for the inhibition at 80 µg/mL in assay [3] and in assay [1] (80 μg/mL) were 61.1 ± 4.1% and 68.1 ± 1.1%, respectively. Besides, the inhibition at 160 µg/mL in assay [3] was determined as 61.9 ± 3.8%; in assay [1] (160 μg/mL), 76.1 ± 2.5%. Also, the inhibition at 320 µg/mL in assay [3] stood at 76.1 ± 4.6%; in assay [1] (320 μg/mL) it was 83.5 ± 3.5%. Also, the inhibition at 640 µg/mL in assay [3] was determined as 87.9 ± 5.6%; in assay [1] (640 μg/mL), 85.6 ± 2.8%.
